From patent publication US8637461B2, “Method of diagnosing and treating oxidative stress-impaired wound healing” (Kuwait University, priority 2011, dated 2014)

What was measured:
cultured fibroblasts = assay: WST-based cell viability of cultured fibroblasts; set-up: species or system rat; conditions: EUK 100 μM, LA 500 μM
protein-bound carbonyls = assay: Protein-bound carbonyl ELISA in fibroblasts; format: cell-based, rat; conditions: diabetic, TNF-α- or dexamethasone-exposed cells; EUK-134
Method: Primary dermal fibroblasts were obtained from dorsal skin of female Goto Kakizaki (GK, age 12-15 months) rats, a model for non-obese type 2 diabetes, and their Wistar control counterparts. After sterilization in povidine solution, rat skin was washed in sterile water and rinsed in 70% ethanol in PBS. Epidermis and dermis were separated following overnight incubation in 0.25% trypsine/EDTA at 4 C. Dermis was cut into small pieces and incubated in Dulbecco's modified Eagle medium (DMEM; Invitrogen) containing collagenase (250 U/ml; Sigma) for thirty min at 37 C in 5% CO2 with constant agitation. The sections were triturated vigorously to release fibroblasts, which were collected by centrifugation. […]
(§1) A hypercortisolemic state was mimicked by exposing control fibroblasts to dexamethasone (Dexa, Sigma) administered at 20 ng/ml every other day for a duration of 8 days. […] The concentration of IGF-1 (50 ng/ml, Peprotech) was determined by prior dose response experiment.
Protein-bound carbonyl levels in fibroblasts, a marker of cumulative oxidative stress, were determined using a procedure in which a sensitive ELISA-based assay was used to measure total protein-bound carbonyls using oxidized bovine serum albumin (BSA) as standard. […]

dermal fibroblasts = assay: BrdU cell proliferation assay in fibroblasts; format: cell-based, rat; conditions: fibroblasts with diabetic, inflammatory or hypercortisolemia phenotypes; ROS suppressors
Method: Primary dermal fibroblasts were obtained from dorsal skin of female Goto Kakizaki (GK, age 12-15 months) rats, a model for non-obese type 2 diabetes, and their Wistar control counterparts. After sterilization in povidine solution, rat skin was washed in sterile water and rinsed in 70% ethanol in PBS. Epidermis and dermis were separated following overnight incubation in 0.25% trypsine/EDTA at 4 C. Dermis was cut into small pieces and incubated in Dulbecco's modified Eagle medium (DMEM; Invitrogen) containing collagenase (250 U/ml; Sigma) for thirty min at 37 C in 5% CO2 with constant agitation. The sections were triturated vigorously to release fibroblasts, which were collected by centrifugation. The cell pellet was washed two times with PBS, re-suspended in complete medium (DMEM supplemented with 10% fetal calf serum, penicillin (100 U/ml), streptomycin (100 μg/ml)), 2 mM L-glutamine and 10 mM HEPES) and then cultured under a standard condition.
as §1, with “days. Similarly, the state of low-grade inflammation in fibroblasts was recapitulated experimentally by exposing these cells to TNF-α (4 ng/ml every day for 4 days).” for “days.”
The proliferation and collagen synthesis of cultured fibroblasts were determined using, respectively the 5-bromo-2-deoxyuridine (BrdU) incorporation into DNA and a radiolabelled proline uptake assay.
Cells were seeded into 96-microtiter plates at a concentration of 1.5×10^4 and allowed to adhere overnight in DMEM supplemented with 10% FCS. After arrest by incubation in DMEM supplemented with 0.5% FCS for 24 hrs, cells were exposed to IGF-I (50 ng/ml) in DMEM containing […] 5-bromo-2-deoxyuridine (BrdUrd). Incorporation of BrdUrd into DNA was estimated using 5-bromo-2-deoxyuridine labeling and detection kit (Roche Applied Science) according to the manufacturer's instructions.

## COc1cccc(C=NCCN=Cc2cccc(OC)c2[O-])c1[O-].[Cl-].[Mn+3] [EUK-134]
Cultured fibroblasts
  effect on cell viability (WST-based technique): minimum effect on cell viability
protein-bound carbonyls
  carbonylated protein accumulation: returned to approximately normal
Dermal fibroblasts
  impairment in key fibroblast functions (collagen synthesis, cell proliferation, migration, contraction): ameliorates
